Assay results taken from paper PMC8175350, “Drug repurposing screens identify chemical entities for the development of COVID-19 interventions” (Nature Communications, 2021).
Read-outs that look alike come from different tables or passages of the source.

What was measured:
Calu-3 cells [1] = system: Calu-3 cells
SARS-CoV-2 [2] = assay: microbe, parasite or virus in culture; type: cell-based
SARS-CoV-2 [3] = assay: microbe, parasite or virus in culture; type: cell-based; settings: for Emax: Severe acute respiratory syndrome coronavirus 2, Calu-3, 48 h
[4] = Uninfected HeLa-ACE2 24 h live/dead cytotoxicity counter screen; type: cell-based, human; settings: human, uninfected HeLa-ACE2 cells
HeLa-ACE2 cells [5] = assay: cells; settings: Homo sapiens; for Emax: HeLa-ACE2, 24 h, read-out: HeLa-ACE2 cell count Sinf Average
Calu-3 cells [6] = assay: cells; settings: Homo sapiens; for Emax: Calu-3, 48 h
in vitro = settings: human
HeLa-ACE2 cells [7] = assay: Uninfected HeLa-ACE2 24 h live/dead cytotoxicity counter screen; type: cell-based, human; settings: for HeLa-ACE2 uninfected cytotoxicity Sinf Average: curve-fit effect at infinite concentration
[8] = Severe acute respiratory syndrome coronavirus 2, HeLa-ACE2, geometric mean of replicates, read-out: HeLa-ACE2 CoV-2 EC50 GeoMean
[9] = Severe acute respiratory syndrome coronavirus 2, Calu-3, geometric mean of replicates, read-out: Calu-3 CoV-2 EC50 GeoMean
[10] = geometric mean of replicates, read-out: HeLa-ACE2 uninfected cytotoxicity CC50 GeoMean
[11] = HeLa-ACE2, read-out: HeLa-ACE2 cell count EC50 GeoMean (µM), geometric mean of replicates
[12] = read-out: Calu-3 cell count Sinf Average (%)
[13] = Calu-3, read-out: Calu-3 cell count EC50 GeoMean (µM), geometric mean of replicates
[14] = Calu-3 uninfected cytotoxicity CC50 GeoMean (µM)
[15] = curve-fit effect at infinite concentration, average, read-out: Calu-3 CoV-2 Sinf Average
[16] = Severe acute respiratory syndrome coronavirus 2, Calu-3, unrounded geometric mean, read-out: Calu-3 CoV-2 EC50 GeoMean
[17] = unrounded geometric mean, read-out: HeLa-ACE2 uninfected cytotoxicity CC50 GeoMean
[18] = read-out: Calu-3 cell count Sinf Average
[19] = Calu-3 uninfected cytotoxicity CC50 GeoMean
[20] = Sinf average of the curves, read-out: Calu-3 CoV-2 Sinf Average (%)
[21] = Severe acute respiratory syndrome coronavirus 2, HeLa-ACE2, unrounded geometric mean, read-out: HeLa-ACE2 CoV-2 EC50 GeoMean
[22] = uninfected cells, Fig. 2b group, read-out: HeLa-ACE2 CC50
[23] = HeLa-ACE2, read-out: HeLa-ACE2 cell count EC50 GeoMean, unrounded geometric mean
[24] = Calu-3, read-out: Calu-3 cell count EC50 GeoMean, unrounded geometric mean
[25] = Severe acute respiratory syndrome coronavirus 2, HeLa-ACE2, reconfirmed hits, read-out: HeLa-ACE2 SARS-CoV-2 EC50
[26] = Severe acute respiratory syndrome coronavirus 2, Calu-3, reconfirmed hits, read-out: Calu-3 SARS-CoV-2 EC50
[27] = reconfirmed hits, read-out: HeLa-ACE2 Uninf. cells CC50

| SMILES | uninfected Calu-3 CC50 [μM] (Calu-3 cells [1]) | EC50 (SARS-CoV-2 [2]; [8]) [µM] | EC50 (SARS-CoV-2 [3]; [9]) [µM] | CC50 at 24 h [4, 10] [µM] | EC50 (HeLa-ACE2 cells [5]; [11]) [µM] | Emax (Calu-3 cells [6]; [12]) [%] | EC50 (Calu-3 cells [6]; [13]) [µM] | CC50 at 48 h (in vitro; [14]) [µM] | Emax (SARS-CoV-2 [3]; [15]) [%] | EC50 (SARS-CoV-2 [3]; [16]) [µM] | CC50 at 24 h [4, 17] [µM] | Emax (Calu-3 cells [6]; [18]) [%] | Emax (SARS-CoV-2 [3]; [20]) [%] | other results |
| --- | --- | --- | --- | --- | --- | --- | --- | --- | --- | --- | --- | --- | --- | --- |
| CC(=N)N1CCC(Oc2ccc(N(Cc3ccc4ccc(C(=N)N)cc4c3)S(=O)(=O)CC(=O)O)cc2)CC1 [YM 60828] | > 29.867 ×÷ 1 (n=3) μM | > 9.59 | 3.18 | > 39.8 | > 9.59 | 100 | 6.81 | > 29.9 |  |  |  |  |  |  |
| CCc1ccc(C2=CC(C)(C)Sc3ccc(C#Cc4ccc(C(=O)O)cc4)cc32)cc1 [AGN-194310] |  |  |  |  |  |  |  |  | 85 | 0.597 | > 39.8 | 100 |  | uninfected Calu-3 CC50 (Calu-3 cells [1]): > 29.867 ×÷ 1 (n=3) μM; Calu-3 uninfected cytotoxicity Sinf Average (Calu-3 cells [1]; human): -100%; EC50 (SARS-CoV-2 [2]; Severe acute respiratory syndrome coronavirus 2, HeLa-ACE2, read-out: HeLa-ACE2 CoV-2 EC50 GeoMean): > 9.59 µM; EC50 (HeLa-ACE2 cells [5]; HeLa-ACE2, read-out: HeLa-ACE2 cell count EC50 GeoMean): > 9.59 µM; EC50 (Calu-3 cells [6]; Calu-3, read-out: Calu-3 cell count EC50 GeoMean): > 7.77 µM; CC50 (in vitro; [19]): > 29.9 µM |
| CCCCCC[C@H]1C(=O)O[C@H](C)[C@H](NC(=O)c2cccc(NC=O)c2O)C(=O)O[C@@H](C)[C@@H]1OC(=O)CC(C)C [Antimycin A] |  | > 9.59 | < 0.0277 | > 39.8 | > 9.59 | 48 | 0.22 |  |  |  |  |  | 93 | Calu-3 uninfected cytotoxicity CC50 GeoMean (Calu-3 cells [1]; human): > 0.6084 µM; uninfected Calu-3 CC50 [μM] (Calu-3 cells [1]; human): > 0.608 ×÷ 246.09 (n=2) μM; HeLa-ACE2 uninfected cytotoxicity Sinf Average (%) (HeLa-ACE2 cells [7]; Sinf average of the curves): -100% |
| NC(N)=Nc1ncc(Cl)c2ccc(-c3cccc(C(=O)O)c3)cc12 [UK-356202] | > 29.875 ×÷ 1 (n=2) μM | > 9.59 | 1.92 | > 39.8 | > 9.59 | 98 | > 7.28 | > 29.9 |  |  |  |  | 85 |  |
| CCCCCCCC/C=C/CCCCCCCC(=O)OC[C@H]1O[C@@H](n2ccc(N)nc2=O)C(F)(F)[C@@H]1O [Gemcitabine elaidate] |  |  |  |  |  |  |  |  | 90 | 0.324 | < 0.00582 | 48 |  | uninfected Calu-3 CC50 (Calu-3 cells [1]): > 29.867 ×÷ 1 (n=3) μM; Calu-3 uninfected cytotoxicity Sinf Average (Calu-3 cells [1]; human, 48 h): -100%; EC50 (SARS-CoV-2 [2]; [21]): > 9.59 µM; HeLa-ACE2 uninfected cytotoxicity Sinf Average (HeLa-ACE2 cells [7]): -53%; CC50 at 24 h [4, 22]: ≤ 3 µM; Emax (HeLa-ACE2 cells [5]): 51%; EC50 (HeLa-ACE2 cells [5]; [23]): < 0.0122 µM; EC50 (Calu-3 cells [6]; [24]): > 3.7 µM; CC50 at 48 h (in vitro; [19]): > 29.9 µM |
| C[C@@H]1C[C@@H]([C@H](O)CC2CC(=O)NC(=O)C2)C(=O)[C@@H](C)C1 [Cycloheximide] |  |  |  |  |  |  |  |  | 98 | 0.195 | 1.47 | 50 |  | Calu-3 uninfected cytotoxicity Sinf Average (Calu-3 cells [1]; human): -39%; Emax (SARS-CoV-2 [2]; Severe acute respiratory syndrome coronavirus 2, HeLa-ACE2, 24 h, curve-fit effect at infinite concentration, average, read-out: HeLa-ACE2 CoV-2 Sinf Average): 101%; EC50 (SARS-CoV-2 [2]; [21]): 0.634 µM; HeLa-ACE2 uninfected cytotoxicity Sinf Average (HeLa-ACE2 cells [7]): -80%; CC50 at 24 h [4, 22]: ≤ 3 µM; Emax (HeLa-ACE2 cells [5]): 100%; EC50 (HeLa-ACE2 cells [5]; [23]): > 9.44 µM; EC50 (Calu-3 cells [6]; [24]): 0.268 µM; CC50 (in vitro; Calu-3 uninfected cytotoxicity CC50 GeoMean, unrounded geometric mean): > 2.43 µM |
| N=C(N)Nc1ccc(C(=O)Oc2ccc(S(N)(=O)=O)cc2)cc1 [Ono-3307] | > 29.867 ×÷ 1 (n=3) μM | > 9.59 | 1.6 | > 39.8 | > 9.59 | 99 | 3.58 | > 29.9 |  |  |  |  | 96 | EC50 (SARS-CoV-2 [2]; [25]): > 9.6 µM; EC50 (SARS-CoV-2 [3]; [26]): 1.6 µM; CC50 at 24 h [4, 27]: > 40 µM; CC50 at 48 h (in vitro; Calu-3 Uninf. cells CC50 (µM)): > 30 µM |
| N=C(N)c1ccc2cc(OC(=O)c3ccc(CNC(=O)CCCC(=O)O)o3)ccc2c1 [TO-195] | > 29.867 ×÷ 1 (n=3) μM | > 6.42 | 0.657 | > 39.8 | > 9.59 | 84 | 1.16 | > 29.9 |  |  |  |  | 91 | Calu-3 uninfected cytotoxicity Sinf Average (%) (Calu-3 cells [1]; human, 48 h): -100%; EC50 (SARS-CoV-2 [2]; [25]): > 6.4 µM; EC50 (SARS-CoV-2 [3]; [26]): 0.657 µM; CC50 at 24 h [4, 27]: > 40 µM; CC50 at 48 h (in vitro; Calu-3 Uninf. cells CC50 (µM)): > 30 µM |
